# Values quoted from earlier work, collected in patent US7323476B2, “Myriceric acid derivatives for the treatment of cancer, cardiovascular and inflammatory diseases” (SaviPu Pharmaceuticals, priority 2006, dated 2008).
# Legend:
# endothelin receptor = settings: qualitative, earlier studies
# NF-κB = settings: qualitative statement on natural products of Fig. R
binding to the endothelin receptor (endothelin receptor),Compound,inhibition of NF-κB (NF-κB)
already been demonstrated,myriceric acid A [PM2011A],
,COc1c(O)cc(O)c2c(=O)cc(-c3ccccc3)oc12 [wogonin],good activity
,"Theaflavin-3,3′-digallate",potent inhibitor
